# According to patent publication US20060167098A1, “Method for the treatment of diseases linked to an accumulation of triglycerides and cholesterol” (Institut National De La Sante ET De LA Recherche Medicale …, priority 2003, published 2006):
# Tests used:
# [1] = Body fat mass by DEXA in Swiss (lean) mice, standard diet, fasted 48 hours before measurement; assay type: in vivo; details: for decrease of body fat mass: 100 mg/kg/day in drinking water, vs control; for decrease of body fat mass / body fat mass: fasted 48 h; for body fat mass: mean±SEM
# Description: Six to 8 weeks old male (Crl:CD-1(ICR)BR) Swiss mice, and six to ten weeks old male RjOrl Swiss mice (i.e. lean mice) weighing 28 and 32 grams were purchased from Dépré (Saint Doulchard, France). Ten to 12 weeks old ob/ob male (C57BL/6-ob) mice (i.e. obese mice), weighing 40 to 44 grams were purchased from Janvier (Le-Genest-St-Isle, France). In one experiment, younger ob/ob mice (5-6 weeks old) weighing 25-26 grams were also studied. In genetically obese ob/ob mice, a mutation on the gene of leptin prevents the normal production of this hormone, thus increasing appetite and decreasing energy consumption (Friedman J. M., Halaas J. L., 1998, Nature 395 : 763-770). […] The animals were acclimatized for one to two weeks before the start of experiments.
# D,L-β-Aminoisobutyric acid (BAIBA) was purchased from Sigma-Aldrich. BAIBA has been administered in drinking water at the dose of 100 mg/kg/day or 500 mg/kg/day for 6 weeks, 2 months or 4 months according to the experiments.
# The in vivo determination of body fat mass in anesthetized mice has been performed by “DEXA” (Dual Energy X-ray Absorptiometry) (Pietriobelli A., Formica C., Wang Z., Heymsfield S. B., 1996, Am. J. Physiol. 271 (Endocrinol. Metab. 34): E941-E951)). […] It is noteworthy that DEXA also gives for each investigated animal its lean mass that is the total amount of water and proteins (in grams) in the body (excluding the head). Therefore, for a given animal, DEXA allows the determination of the percentage of body fat which is its body fat mass divided by the sum of its body lean and fat masses (fat mass/(lean mass+fat mass)). The “DEXA” apparatus was a Piximus® from Lunar Corporation (Madison, Wis.). Mice were anesthetized thanks to a mixture of xylazine and ketamine.
# Procedure 2: the animals were fasted for 48 hours before DEXA measurements which have been performed 2 weeks (T2) and 6 weeks (T6) after starting the treatment. In this procedure, DEXA measurement before the beginning of treatment has not been performed. Comparisons of the different parameters (e.g. fat mass, body weight) between both groups were performed at T2 and at T6.
# In a first series of experiments, the effects of 100 mg/kg/day of β-aminoisobutyric acid (BAIBA) on body fat were investigated in Swiss (lean) mice fed with a standard diet (A04 chow) and fasted for 48 hours before DEXA measurements. Mice were 6 to 8 weeks old at the beginning of the experiment. DEXA was performed twice after the initiation of the treatment. In this experiment, BAIBA decreased body fat mass by 31% and 25%, respectively after 2 and 6 weeks of treatment. The results in FIG. 1 indicate that: • after 2 weeks, body fat mass was 2.63±0.23 and 1.80±0.11 grams, respectively in control mice (n=7) and mice receiving BAIBA (n=7); • after 6 weeks, body fat mass was 3.40±0.27 and 2.56±0.32 grams, respectively in control mice and mice receiving BAIBA.
# [2] = tested on: mitochondrial beta-oxidation of fatty acids in liver; assay: Mitochondrial beta-oxidation of fatty acids in liver
# [3] = Plasma glucose, insulin and adiponectin in very young ob/ob mice (5-6 weeks old), 6 weeks; assay type: in vivo
# Method: Plasma glucose was measured on an automatic analyser (Synchron LX20 from Beckman Coulter) with a commercial kit (kit n°472500 from Beckman).
# Plasma insulin, adiponectin and leptin were measured by radioimmunoassay (RIA). Insulin was measured with the Insulin-CT kit from Cis Bio International (Gif-sur-Yvette, France), whereas plasma leptin and adiponectin were assessed with kits from Linco Research Inc. (St Charles, Mo.). Leptin was not measured in ob/ob mice since these animals are genetically leptin-deficient (Friedman J. M., Halaas J. L., 1998, Nature 395: 763-770). Results regarding insulin were expressed as recommended by kit manufacturer.
# In another experiment, very young ob/ob mice (5-6 weeks old) were treated with 100 mg/kg/d of β-aminoisobutyric acid for 6 weeks and fasted for the last 48 hours. Although plasma glucose was not decreased in treated mice, there was a clear trend toward lower insulin and higher adiponectin. Indeed, plasma insulin was 56±9 and 37±5 μU/ml (p=0.08), respectively in control mice (n=7) and mice treated with β-aminoisobutyric acid (n=7). Plasma adiponectin was 8.0±1.1 and 10.9±1.2 μg/ml (p=0.08), respectively in control mice (n=7) and mice treated with β-aminoisobutyric acid (n=7).
# [4] = Liver lipids in Swiss mice fed with a western diet; assay type: in vivo; details: 100 mg/kg/day, western diet 6 weeks, fasted 48 h
# Method: Total lipids and triglycerides in the liver of animals were assessed according to a procedure partially reported by (Letteron P., Fromenty B., Terris B., Degott C., Pessayre D., 1996, J. Hepatol. 24 : 200-208). Briefly, after killing of the animals, livers were removed and homogenized in sterile water. Hepatic lipids were thus extracted by a mixture of chloroform and methanol (2/1; v/v). After removal of the aqueous phase, the organic phase (chloroform containing the lipids) was evaporated and the amount of lipids was determined by gravimetry. Lipids were subsequently resuspended in isopropanol (final concentration, ca. 10 mg/mL). After removal of the phopholipids by using aluminum hydroxide hydrate, triglycerides were determined colorimetrically by using periodate and the Nash's reagent (containing acetylacetone, ammonium acetate and isopropanol). The reaction generates diacetyldihydrolutidine which is assayed by spectrophotometry (λ=410 nm).
# Liver lipids were assessed in mice fed with the western diet (WD) receiving or not of 100 mg/kg/day of β-aminoisobutyric acid (BAIBA) in the drinking water (8 mice in each group). For comparison, the experiment also included a group of mice (n=8) fed with a standard diet (SD). These animals were those used for the determination of body fat by DEXA (see above, paragraph I-c) but after the last DEXA measurement (i.e. after 6 weeks of treatment), mice were allowed to recover from the anaesthesia for ca. 2 days and were then submitted to a 48-hour period of fast. At the end of this fasting period DEXA was again performed (see above) and then mice were killed for liver lipids determination. The western diet was responsible for an increase in liver lipids as compared to mice fed with the standard diet.
# [5] = 100 mg/kg/d 6 weeks, very young ob/ob, fasted 48 hours, p=0.08
structure (smiles),measurement,setting,value
"CC(CN)C(=O)O (racemic) [BAIBA, D,L-β-Aminoisobutyric acid]",decrease of body fat mass,[1]; after 2 weeks,31%
same,decrease of body fat mass,[1]; after 6 weeks,25%
same,body weight vs control mice,"[1]; 100 mg/kg/day, after 2 and 6 weeks",not significantly different
same,body fat mass,"[1]; 100 mg/kg/day, after 2 weeks",1.80±0.11 grams
same,body fat mass,"[1]; 100 mg/kg/day, after 6 weeks",2.56±0.32 grams
same,mitochondrial beta-oxidation of fatty acids in liver,[2],increases
same,plasma glucose vs control,"[3]; 100 mg/kg/d 6 weeks, very young ob/ob, fasted 48 hours",not decreased
same,plasma adiponectin,[3]; [5],10.9 ± 1.2 µg/mL
same,plasma insulin,[3]; [5],37±5 μU/ml
same,increase of plasma level of adiponectin,[3]; obese mice,around 35%
same,hepatic triglycerides,[4],33±6 mg/whole liver
same,liver lipids,[4],108±7 mg/whole liver
same,decrease of liver total lipids,[4]; vs Controls-WD,24%
same,decrease of liver triglycerides,[4]; vs Controls-WD,17%
